Experimental findings from patent publication US11180495B2 (Abbisko Therapeutics Co., Ltd., priority 2017, dated 2021) are described below.

pIC50: −log10 of the molar value. Where two headings read alike, the source gives them in different places.

Format in all cases: cell-based
The test system of test [1] is M-NFS-60 mouse myeloid leukemia lymphocytes. Put plainly: CSF-1R-related cell proliferation experiment (Cell Titer Glo). Conditions: 72 h, M-NFS-60 cells, 3 days, CTG. As for the experimental part:
Functional effects of compounds on cell proliferation were evaluated by using Cell Titer Glo (CTG) study in the present invention. M-NFS-60 mouse myeloid leukemia lymphocytes (cat. No. CCBJ078) from National Institutes For Food and Drug Control were cultured in the incubator under conditions of RPMI 1640 (Gibco, cat. No. 11875-119), 10% fetal bovine serum (Gibco, 10099-141), human 10 ng/mL M-CSF macrophage colony-stimulating factor (R&D, cat. No. MVN0915101), 37° C. and 5% CO2. Since ATP is an index for viable cell metabolism, CTG (Promega, #G7573) reagent is a homogeneous detection method for detecting the number of viable cells in the culture by quantifying ATP. Therefore, compound-mediated inhibition for cell proliferation/survival was evaluated by quantifying ATP in cells, and the specific experimental process was as follows: • 1. The cells were plated into a tissue-culture-medium-treated 96-well plate (Costar #3904) with 5,000 cells/well/80 μL fresh culture medium: • 2. 24 hours later, 10 μL culture medium containing testing compound with 10-fold of final concentration was added to each well; • 3. 10 μL of culture medium containing M-CSF with 10-fold of the final concentration was then added to each well: • 4. dosage effect was evaluated by testing the 3-fold serial dilutions of the compound; • 5. after the cells were incubated for 3 days at 37° C. and 5% CO2, the inhibition on cell survival was quantified after 50 μL of CTG was added and the luminescence assay was performed; • 6. the compound concentration leading to half maximal inhibitory (IC50) and the compound concentration leading to absolute half maximal inhibitory (Absolute IC50) were measured by a plate reader (M1000, Tecan) and a four-parameter curve fit in Graphpad Prism 7. D. CSF-1R-Related Cell Proliferation Experiment
In general terms: In ATP-based viability assays light output follows the ATP content of the culture.

Test [2] has as its system M-07e human cytomegalic leukemia cells. Put plainly: KIT-related cell proliferation experiment (Cell Titer Glo). Conditions: 72 h, M-07e cells, SCF, 3 days, CTG, read-out: Cytological experiment KIT IC50. The method, then:
(§1) Functional effects of compounds on the proliferation of several cell lines were evaluated by Cell Titer Glo (CTG) studies in the present invention, and effects of the compounds on the proliferation of different cells were evaluated to determine the selectivity degree of the compounds. In the study, M-07e human cytomegalic leukemia cells (cat. No. CBP60791) from Nanjing Kebai Biotechnology Co., Ltd. were cultured in an incubator under conditions of RPMI1640 (Gibco, cat. No. 11875-119), 20% fetal bovine serum (Gibco, 10099-141), human 10 ng/mL GM-CSF granulocyte macrophage colony-stimulating factors (R&D, cat. No. 215-GM-010), 37° C. and 5% CO2; and Kasumi-1 human acute myeloblastic leukemia cells (cat. No. CBP60524) were cultured in an incubator under conditions of RPMI1640 (Gibco, cat. No. 11875-119), 20% fetal bovine serum (Gibco, 10099-141), 37° C. and 5% CO2; NCI-H1703 human non-small cell lung squamous carcinoma cells (cat. No. CBP60115) were cultured in an incubator under conditions of RPMI1640 (Gibco, cat. No. 11875-119), 10% fetal bovine serum (Gibco, 10099-141), 37° C. and 5% CO2; and MV-4-11 human acute monocytic leukemia cells (cat. No. CBP60522) were cultured in an incubator under conditions of IMDM (Invitrogen, cat. No. 12440053), 20% fetal bovine serum (Gibco, 10099-141), 37° C. and 5% CO2. Since ATP is an index for viable cell metabolism, CTG (Promega, #G7573) reagent is a homogeneous detection method for detecting the number of viable cells in the culture by quantifying ATP. Therefore, compound-mediated inhibition for cell proliferation/survival was evaluated by quantifying ATP content in cells, and the specific experimental process was as follows.
I) M-07e Human Cytomegalic Leukemia Cell: • 1. The cells were plated into a tissue-culture-medium-treated 96-well plate (Costar #3904) with 3500 cells/well/80 μL fresh culture medium, and cultured for 24 hrs; • 2. the next day, 10 μL of culture medium containing testing compound with 10-fold of final concentration was added to each well; • 3.

Test [3] has as its system MV-4-11 human acute monocytic leukemia cells. Nature of the test: FLT3-related cell proliferation experiment (Cell Titer Glo). Conditions: MV4-11, 72 h, MV-4-11 cells, 3 days, CTG, read-out: Cytological experiment FLT3 IC50. As for the experimental part:
as §1
III) MV-4-11 Human Acute Monocytic Leukemia Cell • 1.

The subject of test [4] is NCI-H1703 human non-small cell lung squamous carcinoma cells. Put plainly: PDGFRA-related cell proliferation experiment (Cell Titer Glo). Conditions: 72 h, 3 days, CTG, read-out: Cytological experiment PDGFRA IC50. The method, then: as §1
II) NCI-H1703 Human Non-Small Cell Lung Squamous Carcinoma Cell • 1.

Setting [5] is: absolute half maximal inhibitory concentration, read-out: Cytological experiment CSF-1R Absolute IC50.
Setting [6] is: read-out: Cytological experiment CSF1R IC50.

On to `Cc1nc(-c2cnc(NC(C)C)[nH]c2=O)ccc1Cc1c[nH]c2ncc(F)cc12` [Example 5, 5-(5-((5-fluoro-1H-pyrrolo[2,3-b]pyridin-3-yl)methyl)-6-methylpyridin-2-yl)-2-(isopropylamino)pyrimidin-4(3H)-one], for which the pIC50 in test [1] (setting [5]) was 7.32; in test [1] (setting [6]) it was 7.11; in test [2] it was 5.95; in test [3], under 5.70; in test [4], 5.74.

As for `Cc1nc(-c2cnc(NC(C)C)n(C)c2=O)ccc1Cc1c[nH]c2ncccc12` [Example 7, 5-(5-((1H-pyrrolo[2,3-b]pyridin-3-yl)methyl)-6-methylpyridin-2-yl)-2-(isopropylamino)-3-methylpyrimidin-4(3H)-one], the pIC50 in test [1] (setting [5]) was 7.47; in test [1] (setting [6]), 7.40; in test [2] it was 6.08; in test [3], 5.89; in test [4] it was under 5.22.

As for `Cc1nc(-c2cnc3n(c2=O)CCCN3C)ccc1Cc1c[nH]c2ncc(Cl)cc12` [Example 13, 3-(5-((5-chloro-1H-pyrrolo[2,3-b]pyridin-3-yl)methyl)-6-methylpyridin-2-yl)-9-methyl-6,7,8,9-tetrahydro-4H-pyrimido[1,2-a]pyrimidin-4-one], the pIC50 in test [1] (setting [5]) was 7.41; in test [1] (setting [6]), 7.33; in test [2], 5.92; in test [3], under 5.22; in test [4] it was under 5.22.

Turning to `Cc1nc(-c2cnc3n(c2=O)CCCN3C)ccc1Cc1c[nH]c2ncccc12` [Example 14, 3-(5-((1H-pyrrolo[2,3-b]pyridin-3-yl)methyl)-6-methylpyridin-2-yl)-9-methyl-6,7,8,9-tetrahydro-4H-pyrimido[1,2-a]pyrimidin-4-one], the pIC50 in test [1] (setting [5]) is 6.98; in test [1] (setting [6]), 7.01; in test [2], 4.98; in test [3], under 4.74; in test [4], under 4.74.

As for `Cc1nc(-c2cnc3n(c2=O)CCC(C)N3C)ccc1Cc1c[nH]c2ncc(Cl)cc12` (stereo not drawn) [Example 15, 3-(5-((5-chloro-1H-pyrrolo[2,3-b]pyridin-3-yl)methyl)-6-methylpyridin-2-yl)-8,9-dimethyl-6,7,8,9-tetrahydro-4H-pyrimido[1,2-a]pyrimidin-4-one], the negative-log IC50 (pIC50) was 7.08 in test [1] (setting [5]); 7.04 in test [1] (setting [6]); 6.10 in test [2]; under 5.70 in test [3]; under 5.70 in test [4].

For the molecule `CCN1CCCn2c1ncc(-c1ccc(Cc3c[nH]c4ncc(Cl)cc34)c(C)n1)c2=O` [Example 16, 3-(5-((5-chloro-1H-pyrrolo[2,3-b]pyridin-3-yl)methyl)-6-methylpyridin-2-yl)-9-ethyl-6,7,8,9-tetrahydro-4H-pyrimido[1,2-a]pyrimidin-4-one], the pIC50 in test [1] (setting [5]) was 7.14; in test [1] (setting [6]) it was 7.16; in test [2] it was 6.57; in test [3] it was 6.06; in test [4], 5.99.

For the molecule `CCN1CCCn2c1ncc(-c1ccc(Cc3c[nH]c4ncc(-c5cnn(C)c5)cc34)c(C)n1)c2=O` [Example 17], the pIC50 was 8.20 in test [1] (setting [6]); 8.30 in test [1] (Lymphocyte, absolute half maximal inhibitory concentration, read-out: Cytological experiment CSF-1R Absolute IC50); 7.41 in test [2]; 7.56 in test [3]; 7.24 in test [4].

For `Cc1nc(-c2cnc3n(c2=O)CCCN3C)ccc1Cc1c[nH]c2ncc(-c3cnn(C)c3)cc12` [Example 18, 9-methyl-3-(6-methyl-5-((5-(1-methyl-1H-pyrazol-4-yl)-1H-pyrrolo[2,3-b]pyridin-3-yl)methyl)pyridin-2-yl)-6,7,8,9-tetrahydro-4H-pyrimido[1,2-a]pyrimidin-4-one], the pIC50 in test [1] (setting [5]) is 8.31; in test [1] (setting [6]), 8.30; in test [2], 6.63; in test [3], 6.30; in test [4] it was 6.35.

Regarding `Cc1nc(-c2cnc3n(c2=O)CCCN3C)ccc1Cc1c[nH]c2ncc(F)cc12` [Example 20, 3-(5-((5-fluoro-1H-pyrrolo[2,3-b]pyridin-3-yl)methyl)-6-methylpyridin-2-yl)-9-methyl-6,7,8,9-tetrahydro-4H-pyrimido[1,2-a]pyrimidin-4-one], the negative-log IC50 (pIC50) was 6.98 in test [1] (setting [5]); 7.04 in test [1] (setting [6]); 5.50 in test [2]; under 4.74 in test [3]; under 4.74 in test [4].

Turning to `Cc1cnc2[nH]cc(Cc3ccc(-c4cnc5n(c4=O)CCCN5C)nc3C)c2c1` [Example 21, 9-methyl-3-(6-methyl-5-((5-methyl-1H-pyrrolo[2,3-b]pyridin-3-yl)methyl)pyridin-2-yl)-6,7,8,9-tetrahydro-4H-pyrimido[1,2-a]pyrimidin-4-one], the pIC50 is 7.34 in test [1] (setting [5]); 7.27 in test [1] (setting [6]); 5.82 in test [2]; under 4.74 in test [3]; under 4.74 in test [4].

As for `COc1cnc2[nH]cc(Cc3ccc(-c4cnc5n(c4=O)CCCN5C)nc3C)c2c1` [Example 22, 3-(5-((5-methoxy-1H-pyrrolo[2,3-b]pyridin-3-yl)methyl)-6-methylpyridin-2-yl)-9-methyl-6,7,8,9-tetrahydro-4H-pyrimido[1,2-a]pyrimidin-4-one], the pIC50 was 7.41 in test [1] (setting [5]); 7.32 in test [1] (setting [6]); 5.82 in test [2]; under 5.22 in test [3]; under 5.70 in test [4].

As for `Cc1nc(-c2cnc3n(c2=O)CCCN3C)ccc1Cc1c[nH]c2ncc(O)cc12` [Example 23], the pIC50 was 6.88 in test [1] (setting [5]); 6.85 in test [1] (setting [6]); 5.73 in test [2]; under 5.70 in test [3]; under 5.22 in test [4].

As usually defined, the pIC50 is the IC50 on a negative log10 scale, so that one unit is a factor of ten.
